# According to US12544373B2, “Treatment of cancer, inflammatory diseases and autoimmune diseases” (Usher III Initiative, Inc., priority 2020, dated 2026):
# Like-named read-outs stand apart in the source and are kept apart here.
# What was measured:
# Format in all cases: cell-based, human
# PRXF PC-3 = assay: CellTiter-Blue 2D monolayer assay (Example 1), prostate; settings: for Test/Control (%): 72 h
# Procedure: (§1) Compound 85 was assessed in 10 human tumor cell lines (see Table 3) for anti-cancer activity in vitro using a CellTiter-Blue® based 2D monolayer assay.
# (§2) CellTiter-Blue® Cell Viability Assay: Tumor cells were grown at 37° C. in a humidified atmosphere with 5% CO2 in RPMI medium, supplemented with 10% (v/v) fetal calf serum and 50 μg/ml gentamicin (140 μl/well). Cultures were incubated at 37° C. and 5% CO2 in a humidified atmosphere. After 24 hours, 10 μl of Compound 85 was added, and left on the cells for another 72 hours (incubation period). Compound 85 was tested at 5 concentrations (0.003 μM, 0.03 μM, 0.3 μM, 3 μM, and 30 μM) and serially diluted in DMSO, mixed with cell culture medium, and added to the assay plates by using a Tecan Freedom EVO 200 robotic platform. The DMSO concentration was kept constant at 0.3% yip across the assay plate. Every 96 well plate included six DMSO-treated control wells and Compound 85-treated wells in duplicate at 5 concentrations. Viability of cells was quantified using the CellTiter-Blue® cell viability assay (Promega G8081). After incubation of cells, the CellTiter-Blue® reagent was brought to ambient temperature. Next, 20 μl of CellTiter-Blue® reagent were added to each well. After incubation tier up to 4 hours, fluorescence (FU) was measured using the EnSpire® multimode plate reader (Perkin Elmer) ([…]).
# (§3) Data Evaluation: Sigmoidal concentration-response curves were fitted to the data points (test-versus-control; T/C values) obtained for each tumor model using 4 parameter non-linear curve fit (Charles River DRS Datawarehouse Software). Drug effects are expressed in terms of the percentage of the fluorescence signal, obtained by comparison of the mean signal in the treated wells with the mean signal of the untreated controls (T/C-value [%]) (Table 4). IC50 and IC70 values were reported as relative and absolute IC50 and IC70 values (Table 5). The absolute IC50 and IC70 values reflect the concentration of Compound 85 that achieves T/C=50% and T/C=30%, respectively. The relative IC50 value is the concentration of Compound 85 that gives a response half way between the top and bottom plateau of the sigmoidal concentration-response curve (inflection point of the curve).
# PRXF DU-145 = assay: as above; settings: for Test/Control (%): 72 h
# Procedure: as §1, §2, §3
# PAXF HUP-T3 = assay: CellTiter-Blue Cell Viability Assay (Example 2), pancreatic; settings: for T/C %: 72 h
# Excerpt: (§4) The CellTiter-Blue® Cell Viability Assay was used to assess the viability of cells from various cancer cell lines, in the presence or absence of Compound 85 (at different concentrations). This assay provides a homogeneous, fluorometric method for estimating the number of viable cells present in multi-well plates. Viable cells retain the ability to reduce resazurin to resorufin, which is highly fluorescent. […] The fluorescence produced is proportional to the number of viable cells. There is a linear relationship between cell number and fluorescence.
# (§5) Cancer cells (see Table 6) were harvested from exponential phase cultures, counted and plated in 96 well flat-bottom microtiter plates, at a cell density 6,000-20,000 cells/well, depending on the cell line's growth rate. The culture medium was supplemented with 10% (v/v) foetal calf serum and 50 μg/mL gentamicin (140 μL/well). Cultures were incubated at 37° C. and 5% CO2 in a humidified atmosphere.
# (§6) Compound 85 was serially diluted in DMSO, and five Compound 85 concentrations in half-log increments were used: 0.03 μM, 0.09 μM, 0.30 μM, 1.0 μM, and 3.0 μM. After 24 h, 10 μL of Compound 85 (dissolved in DMSO) or control (DMSO) medium were added, in duplicates, and left on the cells for another 72 h. Compound 85 solutions were added to the assay plates using a Tecan Freedom EVO 200 robotic platform. The DMSO concentration was kept constant at 0.3% v/v across the assay plate.
# (§7) After incubation of up to 72 hours, fluorescence (FU) was measured using the EnSpire® multimode plate reader (Perkin Elmer) (excitation λ=570 nm, emission λ=600 nm).
# (§8) Cancer cell lines used: Compound 85's anti-cancer effect was tested in 20 human cancer-cell lines representing nine cancer types (Table 6).
# (§9) The percentage of viable cells in the presence of Compound 85 (Test condition, T), at different concentrations, are presented in Table 7 and expressed as a percentage of the number of viable cells in the presence of DMSO without Compound 85 (Control condition, C).
# (§10) The relative IC50 is determined as the Compound 85 concentration giving a response halfway between the maximum cell viability signal (i.e., a 100% cell viability, no Compound 85 response) and the minimal viability signal (i.e. maximum cell viability inhibition achieved by Compound 85), in a sigmoidal concentration-effect curve.
# (§11) The absolute IC50 is determined as the concentration that is associated with a T/C ratio of 50%.
# PAXF 1657 = assay: as above; settings: for T/C %: 72 h
# Excerpt: as §4, §5, §6, §7, §8, §9, §10, §11
# CXF LS 174T = assay: CellTiter-Blue Cell Viability Assay (Example 2), colon; settings: for T/C %: 72 h
# Excerpt: as §4, §5, §6, §7, §8, §9, §10, §11
# CXF HCC-2998 = assay: as above; settings: for T/C %: 72 h
# Excerpt: as §4, §5, §6, §7, §8, §9, §10, §11
structure (smiles),measurement,setting,value
CC(C)(O)Cn1nc(-c2ccccc2)c2c(Cl)c(-c3ccccc3)nnc21 [Compound 85],Rel. IC70,PRXF PC-3,1.326 µM
same,Test/Control (%),PRXF PC-3; 0.003 μM,104%
same,Test/Control (%),PRXF PC-3; 0.03 μM,103%
same,Test/Control (%),PRXF PC-3; 0.3 μM,103%
same,Test/Control (%),PRXF PC-3; 3 μM,2%
same,Test/Control (%),PRXF PC-3; 30 μM,1%
same,Abs. IC70,PRXF PC-3; T/C=30%,1.349 µM
same,IC50,"PRXF PC-3; T/C=50%, read-out: Abs. IC50",1100 nM
same,Bot. (%),PRXF PC-3; bottom plateau of curve,1%
same,IC50,PRXF PC-3; read-out: Rel. IC50,1080 nM
same,Top (%),PRXF PC-3; top plateau of curve,103%
same,Rel. IC70,PRXF DU-145,1.376 µM
same,Test/Control (%),PRXF DU-145; 0.003 μM,100%
same,Test/Control (%),PRXF DU-145; 0.03 μM,110%
same,Test/Control (%),PRXF DU-145; 0.3 μM,102%
same,Test/Control (%),PRXF DU-145; 3 μM,11%
same,Test/Control (%),PRXF DU-145; 30 μM,6%
same,Abs. IC70,PRXF DU-145; T/C=30%,1.528 µM
same,IC50,"PRXF DU-145; T/C=50%, read-out: Abs. IC50",1090 nM
same,Bot. (%),PRXF DU-145; bottom plateau of curve,6%
same,IC50,PRXF DU-145; read-out: Rel. IC50,1000 nM
same,Top (%),PRXF DU-145; top plateau of curve,105%
same,Absolute IC70,PAXF HUP-T3,0.723 µM
same,Relative IC70,PAXF HUP-T3,0.602 µM
same,T/C %,PAXF HUP-T3; 0.03 μM,95%
same,T/C %,PAXF HUP-T3; 0.095 μM,102%
same,T/C %,PAXF HUP-T3; 0.3 μM,88%
same,T/C %,PAXF HUP-T3; 0.95 μM,21%
same,T/C %,PAXF HUP-T3; 3.0 μM,16%
same,IC50,PAXF HUP-T3; read-out: Absolute IC50,532 nM
same,IC50,PAXF HUP-T3; read-out: Relative IC50,487 nM
same,Absolute IC70,PAXF 1657,1.166 µM
same,Relative IC70,PAXF 1657,1.169 µM
same,T/C %,PAXF 1657; 0.03 μM,97%
same,T/C %,PAXF 1657; 0.095 μM,94%
same,T/C %,PAXF 1657; 0.3 μM,97%
same,T/C %,PAXF 1657; 0.95 μM,66%
same,T/C %,PAXF 1657; 3.0 μM,1%
same,IC50,PAXF 1657; read-out: Absolute IC50,1040 nM
same,IC50,PAXF 1657; read-out: Relative IC50,1050 nM
same,Absolute IC70,CXF LS 174T,0.474 µM
same,Relative IC70,CXF LS 174T,0.467 µM
same,T/C %,CXF LS 174T; 0.03 μM,96%
same,T/C %,CXF LS 174T; 0.095 μM,96%
same,T/C %,CXF LS 174T; 0.3 μM,72%
same,T/C %,CXF LS 174T; 0.95 μM,5%
same,T/C %,CXF LS 174T; 3.0 μM,3%
same,IC50,CXF LS 174T; read-out: Absolute IC50,383 nM
same,IC50,CXF LS 174T; read-out: Relative IC50,384 nM
same,Absolute IC70,CXF HCC-2998,1.125 µM
same,Relative IC70,CXF HCC-2998,0.891 µM
same,T/C %,CXF HCC-2998; 0.03 μM,98%
same,T/C %,CXF HCC-2998; 0.095 μM,99%
same,T/C %,CXF HCC-2998; 0.3 μM,98%
same,T/C %,CXF HCC-2998; 0.95 μM,40%
same,T/C %,CXF HCC-2998; 3.0 μM,22%
same,IC50,CXF HCC-2998; read-out: Absolute IC50,844 nM
same,IC50,CXF HCC-2998; read-out: Relative IC50,765 nM
